{
  "source": "ChEMBL document CHEMBL4706545",
  "about": "“Antiproliferative effect of mitochondria-targeting allobetulin 1,2,3-triazolium salt derivatives and their mechanism of inducing apoptosis of cancer cells” (Eur J Med Chem, 2020)",
  "key": {"[1]": {"experiment": "Selectivity index, ratio of IC50 for cytotoxicity against human HL7702 cells to IC50 for cytotoxicity against human SGC-7901 cells"}, "SGC-7901 [2]": {"system": "SGC-7901", "experiment": "Induction of apoptosis in human SGC-7901 cells assessed as concentrated chromatin at 1 to 4 uM incubated for 48 hrs by Hoechst staining based fluorescence microscopic analysis", "assay_type": "functional, cell-based", "details": "dose 1-4 µM"}, "SGC-7901 [3]": {"system": "SGC-7901", "experiment": "Induction of apoptosis in human SGC-7901 cells assessed as viable cells at 1 uM incubated for 48 hrs by annexin-V-FITC and PI staining based fluorescence microscopic analysis (reference value: 93.8 %)", "assay_type": "functional", "details": "read-out: Activity"}, "SGC-7901 [4]": {"system": "SGC-7901", "experiment": "Induction of apoptosis in human SGC-7901 cells assessed as early apoptotic cells at 2 uM incubated for 48 hrs by annexin-V-FITC and PI staining based fluorescence microscopic analysis (reference value: 1.87 %)", "assay_type": "functional"}, "SGC-7901 [5]": {"system": "SGC-7901", "experiment": "Induction of ROS-mediated apoptosis in human SGC-7901 cells assessed as early apoptotic cells at 1 uM incubated for 48 hrs by annexin V-PE and 7-AAD staining based flow cytometry analysis (reference value: 1.89 %)", "assay_type": "functional"}, "SGC-7901 [6]": {"system": "SGC-7901", "experiment": "Induction of ROS-mediated apoptosis in human SGC-7901 cells assessed as necrotic cells at 4 uM incubated for 48 hrs by annexin V-PE and 7-AAD staining based flow cytometry analysis (reference value: 0.733 %)", "assay_type": "functional"}, "SGC-7901 [7]": {"system": "SGC-7901", "experiment": "Induction of ROS-mediated apoptosis in human SGC-7901 cells assessed as necrotic cells at 1 uM incubated for 48 hrs in presence of NAC by annexin V-PE and 7-AAD staining based flow cytometry analysis (reference value: 0.623 %)", "assay_type": "functional"}, "SGC-7901 [8]": {"system": "SGC-7901", "experiment": "Induction of ROS-mediated apoptosis in human SGC-7901 cells assessed as viable cells at 2 uM incubated for 48 hrs in presence of NAC by annexin V-PE and 7-AAD staining based flow cytometry analysis (reference value: 94.8 %)", "assay_type": "functional", "details": "read-out: Activity"}, "SGC-7901 [9]": {"system": "SGC-7901", "experiment": "Induction of cell cycle arrest in human SGC-7901 cells assessed as accumulation in G0/G1 phase at 1 uM incubated for 48 hrs by PI staining based flow cytometry analysis (reference value: 57.39 %)", "assay_type": "functional"}, "SGC-7901 [10]": {"system": "SGC-7901", "experiment": "Induction of cell cycle arrest in human SGC-7901 cells assessed as accumulation in S phase at 2 uM incubated for 48 hrs by PI staining based flow cytometry analysis (reference value: 31.13 %)", "assay_type": "functional"}, "SGC-7901 [11]": {"system": "SGC-7901", "experiment": "Induction of cell cycle arrest in human SGC-7901 cells assessed as accumulation in G2/M phase at 2 uM incubated for 48 hrs by PI staining based flow cytometry analysis (reference value: 11.48 %)", "assay_type": "functional"}, "SGC-7901 [12]": {"system": "SGC-7901", "experiment": "Induction of cell cycle arrest in human SGC-7901 cells assessed as accumulation in G0/G1 phase at 4 uM incubated for 48 hrs by PI staining based flow cytometry analysis (reference value: 57.39 %)", "assay_type": "functional"}, "SGC-7901 [13]": {"system": "SGC-7901", "experiment": "Induction of apoptosis in human SGC-7901 cells assessed as decrease in caspase-3 incubated for 48 hrs by Western blot analysis", "assay_type": "functional, cell-based", "details": "dose 1-4 µM"}, "ECa-109 cell line [14]": {"system": "ECa-109 cell line", "experiment": "Induction of apoptosis in human ECa-109 cells assessed as decrease in PARP incubated for 48 hrs by Western blot analysis", "assay_type": "functional, cell-based", "details": "dose 1-4 µM"}, "ECa-109 cell line [15]": {"system": "ECa-109 cell line", "experiment": "Induction of apoptosis in human ECa-109 cells assessed as necrotic cells at 1 uM incubated for 48 hrs by annexin-V-FITC and PI staining based fluorescence microscopic analysis (reference value: 1.19 %)", "assay_type": "functional"}, "ECa-109 cell line [16]": {"system": "ECa-109 cell line", "experiment": "Induction of apoptosis in human ECa-109 cells assessed as viable cells at 2 uM incubated for 48 hrs by annexin-V-FITC and PI staining based fluorescence microscopic analysis (reference value: 95.8 %)", "assay_type": "functional", "details": "read-out: Activity"}, "ECa-109 cell line [17]": {"system": "ECa-109 cell line", "experiment": "Induction of apoptosis in human ECa-109 cells assessed as necrotic cells at 4 uM incubated for 48 hrs by annexin-V-FITC and PI staining based fluorescence microscopic analysis (reference value: 1.19 %)", "assay_type": "functional"}, "ECa-109 cell line [18]": {"system": "ECa-109 cell line", "experiment": "Induction of apoptosis in human ECa-109 cells assessed as late apoptotic cells incubated for 48 hrs by annexin-V-FITC and PI staining based fluorescence microscopic analysis", "assay_type": "functional, cell-based", "details": "dose 1-4 µM"}, "ECa-109 cell line [19]": {"system": "ECa-109 cell line", "experiment": "Induction of mitochondrial membrane potential disruption in human ECa-109 cells incubated for 48 hrs by JC-1 dye based flow cytometry analysis", "details": "Mitochondria, dose 1-4 µM"}, "ECa-109 cell line [20]": {"system": "ECa-109 cell line", "experiment": "Induction of ROS-mediated apoptosis in human ECa-109 cells assessed as viable cells at 1 uM incubated for 48 hrs by annexin V-PE and 7-AAD staining based flow cytometry analysis (reference value: 92.7 %)", "assay_type": "functional", "details": "read-out: Activity"}, "ECa-109 cell line [21]": {"system": "ECa-109 cell line", "experiment": "Induction of ROS-mediated apoptosis in human ECa-109 cells assessed as early apoptotic cells at 2 uM incubated for 48 hrs by annexin V-PE and 7-AAD staining based flow cytometry analysis (reference value: 2.70 %)", "assay_type": "functional"}, "ECa-109 cell line [22]": {"system": "ECa-109 cell line", "experiment": "Induction of ROS-mediated apoptosis in human ECa-109 cells assessed as viable cells at 1 uM incubated for 48 hrs in presence of NAC by annexin V-PE and 7-AAD staining based flow cytometry analysis (reference value: 94 %)", "assay_type": "functional", "details": "read-out: Activity"}, "ECa-109 cell line [23]": {"system": "ECa-109 cell line", "experiment": "Induction of ROS-mediated apoptosis in human ECa-109 cells assessed as early apoptotic cells at 1 uM incubated for 48 hrs in presence of NAC by annexin V-PE and 7-AAD staining based flow cytometry analysis (reference value: 1.90 %)", "assay_type": "functional"}, "ECa-109 cell line [24]": {"system": "ECa-109 cell line", "experiment": "Induction of ROS-mediated apoptosis in human ECa-109 cells assessed as late apoptotic cells at 1 uM incubated for 48 hrs in presence of NAC by annexin V-PE and 7-AAD staining based flow cytometry analysis (reference value: 2.98 %)", "assay_type": "functional"}, "ECa-109 cell line [25]": {"system": "ECa-109 cell line", "experiment": "Induction of ROS-mediated apoptosis in human ECa-109 cells assessed as late apoptotic cells at 2 uM incubated for 48 hrs in presence of NAC by annexin V-PE and 7-AAD staining based flow cytometry analysis (reference value: 2.98 %)", "assay_type": "functional"}, "ECa-109 cell line [26]": {"system": "ECa-109 cell line", "experiment": "Induction of ROS-mediated apoptosis in human ECa-109 cells assessed as early apoptotic cells at 4 uM incubated for 48 hrs in presence of NAC by annexin V-PE and 7-AAD staining based flow cytometry analysis (reference value: 1.90 %)", "assay_type": "functional"}, "ECa-109 cell line [27]": {"system": "ECa-109 cell line", "experiment": "Induction of ROS-mediated apoptosis in human ECa-109 cells assessed as late apoptotic cells at 4 uM incubated for 48 hrs in presence of NAC by annexin V-PE and 7-AAD staining based flow cytometry analysis (reference value: 2.98 %)", "assay_type": "functional"}, "ECa-109 cell line [28]": {"system": "ECa-109 cell line", "experiment": "Induction of cell cycle arrest in human ECa-109 cells assessed as accumulation in S phase at 2 uM incubated for 48 hrs by PI staining based flow cytometry analysis (reference value: 39.33 %)", "assay_type": "functional"}, "ECa-109 cell line [29]": {"system": "ECa-109 cell line", "experiment": "Induction of cell cycle arrest in human ECa-109 cells assessed as accumulation in G0/G1 phase at 4 uM incubated for 48 hrs by PI staining based flow cytometry analysis (reference value: 52.28 %)", "assay_type": "functional"}, "ECa-109 cell line [30]": {"system": "ECa-109 cell line", "experiment": "Induction of apoptosis in human ECa-109 cells assessed as upregulation of Bax incubated for 48 hrs by Western blot analysis", "assay_type": "functional, cell-based", "details": "dose 1-4 µM"}, "ECa-109 cell line [31]": {"system": "ECa-109 cell line", "experiment": "Induction of apoptosis in human ECa-109 cells assessed as nuclear fragmentation at 1 to 4 uM incubated for 48 hrs by Hoechst staining based fluorescence microscopic analysis", "assay_type": "functional, cell-based", "details": "dose 1-4 µM"}, "ECa-109 cell line [32]": {"system": "ECa-109 cell line", "experiment": "Induction of apoptosis in human ECa-109 cells assessed as concentrated chromatin at 1 to 4 uM incubated for 48 hrs by Hoechst staining based fluorescence microscopic analysis", "assay_type": "functional, cell-based", "details": "dose 1-4 µM"}},
  "note": "Calls of active or inactive are those of the source. The calls are words filed in the database; no cut-off is given here.",
  "data": [
    {"smiles": "C[n+]1nn(Cc2c(F)cccc2Cl)c2c1C[C@]1(C)[C@H]3CC[C@@H]4[C@H]5[C@H]6OC[C@@]5(CCC6(C)C)CC[C@@]4(C)[C@]3(C)CC[C@H]1C2(C)C.[I-]", "values": [
      {"measurement": "Ratio IC50", "setting": "[1]", "result": 2.08},
      {"measurement": "Activity", "setting": "SGC-7901 [2]", "result": "Active"},
      {"measurement": "viability at 1 µM", "setting": "SGC-7901 [3]", "result": 83, "unit": "%"},
      {"measurement": "Activity", "setting": "SGC-7901 [4]", "result": 25.4, "unit": "%"},
      {"measurement": "Activity", "setting": "SGC-7901 [5]", "result": 13.7, "unit": "%"},
      {"measurement": "Activity", "setting": "SGC-7901 [6]", "result": 0.028, "unit": "%"},
      {"measurement": "Activity", "setting": "SGC-7901 [7]", "result": 1.21, "unit": "%"},
      {"measurement": "viability at 2 µM", "setting": "SGC-7901 [8]", "result": 71.3, "unit": "%"},
      {"measurement": "Activity", "setting": "SGC-7901 [9]", "result": 80.42, "unit": "%"},
      {"measurement": "Activity", "setting": "SGC-7901 [10]", "result": 15.76, "unit": "%"},
      {"measurement": "Activity", "setting": "SGC-7901 [11]", "result": 9.6, "unit": "%"},
      {"measurement": "Activity", "setting": "SGC-7901 [12]", "result": 59.38, "unit": "%"},
      {"measurement": "Activity", "setting": "SGC-7901 [13]", "result": "Dose-dependent effect"},
      {"measurement": "Activity", "setting": "ECa-109 cell line [14]", "result": "Dose-dependent effect"}
    ]},
    {"smiles": "COc1ccccc1Cn1n[n+](C)c2c1C(C)(C)[C@@H]1CC[C@]3(C)[C@H](CC[C@@H]4[C@H]5[C@H]6OC[C@@]5(CCC6(C)C)CC[C@]43C)[C@@]1(C)C2.[I-]", "values": [
      {"measurement": "Activity", "setting": "ECa-109 cell line [15]", "result": 0.624, "unit": "%"},
      {"measurement": "viability at 2 µM", "setting": "ECa-109 cell line [16]", "result": 55.1, "unit": "%"},
      {"measurement": "Activity", "setting": "ECa-109 cell line [17]", "result": 3.58, "unit": "%"},
      {"measurement": "Activity", "setting": "ECa-109 cell line [18]", "result": "Dose-dependent effect"},
      {"measurement": "Activity", "setting": "ECa-109 cell line [19]", "result": "Dose-dependent effect"},
      {"measurement": "viability at 1 µM", "setting": "ECa-109 cell line [20]", "result": 66.9, "unit": "%"},
      {"measurement": "Activity", "setting": "ECa-109 cell line [21]", "result": 11.5, "unit": "%"},
      {"measurement": "viability at 1 µM", "setting": "ECa-109 cell line [22]", "result": 76.2, "unit": "%"},
      {"measurement": "Activity", "setting": "ECa-109 cell line [23]", "result": 8.01, "unit": "%"},
      {"measurement": "Activity", "setting": "ECa-109 cell line [24]", "result": 13.7, "unit": "%"},
      {"measurement": "Activity", "setting": "ECa-109 cell line [25]", "result": 18.2, "unit": "%"},
      {"measurement": "Activity", "setting": "ECa-109 cell line [26]", "result": 3.5, "unit": "%"},
      {"measurement": "Activity", "setting": "ECa-109 cell line [27]", "result": 78.9, "unit": "%"},
      {"measurement": "Activity", "setting": "ECa-109 cell line [28]", "result": 40.19, "unit": "%"},
      {"measurement": "Activity", "setting": "ECa-109 cell line [29]", "result": 33.47, "unit": "%"},
      {"measurement": "Activity", "setting": "ECa-109 cell line [30]", "result": "Dose-dependent effect"},
      {"measurement": "Activity", "setting": "ECa-109 cell line [31]", "result": "Active"},
      {"measurement": "Activity", "setting": "ECa-109 cell line [32]", "result": "Active"}
    ]}
  ]
}
